Tests used:
[1] = tested on: peptidyl prolyl isomerase (Pin1); experiment: Pin1 expression in LX-2; type: cell-based, human; settings: FIG. 5b
Protocol: (§1) A human HSC line (LX-2, Milipore, U.S.A.) was plated in a 6-well plate, and grown to confluency in DMEM supplemented with 1% penicillin-streptomycin (Hyclone, U.S.A.) and 2% fetal bovine serum (Hyclone, U.S.A.) at 37° C. in a 5% CO2 incubator. For a further experiment, the confluent HSC line was incubated in an FBS-free medium, instead of the 2% FBS-added medium.
According to existing reports, as a core factor participating in cell proliferation by PDGF, peptidyl prolyl isomerase (Pin1) is known. Therefore, Pin1 relevance with respect to the GPR119 ligand action was evaluated.

Smad3 and p300 = experiment: Smad3-p300 interaction, Smad3 acetylation and AMPK-p300 binding in LX-2 (immunoprecipitation); type: cell-based, human
Protocol: as §1
Total fraction protein was reacted with corresponding antibodies at 4° C. for 12 hours or more. An antigen-antibody conjugate was reacted with protein G-agarose at 4° C. for 2 hours to precipitate, and then reacted with 2× Laemmli buffer. The extracted protein was observed by an immunochemical method.
According to existing reports, AMPK activation in HSCs inhibits the interaction between Smad3 and p300 and inhibits the expression of a liver fibrosis-inducing factor through elevation of proteasomal degradation of the transcriptional coactivator p300. Thus, the influence of the GPR119 ligand on the interaction between Smad2/Smad3 and p300 was examined.
Subsequently, in the present invention, a mechanism for inhibiting the Smad-p300 interaction due to AMPK activation was investigated.

[2] = tested on: C57BL/6 mice with liver fibrosis induced by carbon tetrachloride; experiment: carbon tetrachloride (CCl4)-induced liver fibrosis animal model; type: in vivo, mouse; settings: for ALT / AST / D-BIL / T-BIL: blood
Protocol: 6-week-old male C57BL/6J mice (Joongang laboratory animal, Seoul) were acclimated in a laboratory environment for 1 week with solid feed, and randomly arranged in control groups and experimental groups according to randomized block design. Then, carbon tetrachloride (1 ml/kg) was administered to 6-week-old male C57BL/6 mice (Joongang laboratory animal, Seoul) twice a week for three weeks to induce liver fibrosis, and a GPR119 ligand (10 mg/kg) suspended in 40% PEG400 was orally administered thereto once a day for five days per week. For liver fibrosis models induced by dimethylnitrosamine (DMN), DMN (10 mg/kg) was administered to mice three times a week to induce liver fibrosis. As the control group, a vehicle-treated group was used. After termination of the experiment, the laboratory animals were fasted for 12 hours or more, and anesthetized with Zoletil to obtain blood and the liver, and the liver was washed with 0.1 M phosphate buffered saline (PBS; pH 7.4) and weighed. The blood obtained from the abdominal aorta was centrifuged in an SST tube at 3000×RPM for 20 minutes to isolate the serum.
For the above-mentioned laboratory animals, serum alanine transaminase (ALT), aspartate transaminase (AST), total bilirubin (T-BIL) and direct bilirubin (D-BIL) were analyzed using an automated hematology analyzer, Spectrum [(Abbott Laboratories, Abbott Park, Ill.)].
The liver samples obtained as described above were prepared into sections, and the tissue section was fixed with 10% buffered neutral formalin and embedded in paraffin. Afterward, the resulting section was sliced to a 4-μm thickness, and put on a slide to fix a specimen, stained with sirius red, and observed using an optical microscope.
A predetermined amount of liver tissue was homogenized in a mortar with liquid nitrogen and a lysis buffer, and the resulting tissue solution was transferred into a new tube and then vortexed. The tissue solution was centrifuged at 14,000 rpm and 4° C. for 20 minutes, and the intermediate layer was extracted to quantify a protein by a Bradford method. 30 μg of proteins were analyzed by electrophoresis using an SDS polyacrylamide gel, and the change of protein expression was analyzed by western blot.
To examine improvement of liver fibrosis by the GPR119 ligand, in an animal model having liver fibrosis induced by carbon tetrachloride (CCl4), an effect of the GPR119 ligand on inhibiting liver fibrosis was observed.
First, 1 ml/kg of carbon tetrachloride was intraperitoneally administered twice a week, and also orally administered with the GPR119 ligand (MBX-2982) at doses of 20 and 40 mg/kg, respectively, once a day for 5 days a week. Three weeks later, liver tissue was extracted, subjected to sirius red staining for confirming collagen production and immunohistochemical staining for confirming expression of a HSC activation marker, that is, α-SMA, and then compared with a control group and a carbon tetrachloride only-treated group.

[3] = 40 mg/kg oral once a day 5 days a week, 3 weeks, FIG. 3a
[4] = 40 mg/kg, western blot, FIG. 3c

Pin1 expression [1]: time-dependently reduced
Smad3 acetylation elevated by TGFβ1 (Smad3 and p300; LX-2, FIG. 4e): considerably inhibited
interaction between Smad3 and p300 elevated by TGFβ1 (Smad3 and p300; LX-2, FIG. 4e): considerably inhibited
binding of activated AMPK to p300 (Smad3 and p300; LX-2 treated with ligand alone, FIG. 4g): directly bound to p300
SMILES: CCc1cnc(N2CCC(c3nc(COc4ccc(-n5cnnn5)cc4)cs3)CC2)nc1 [MBX-2982, 4-((4-(1H-tetrazol-1-yl)phenoxy)methyl)-2-(1-(5-ethylpyrimidin-2-yl)piperidin-4-yl)thiazole]
collagen production (sirius red staining) in liver tissue [2, 3]: significantly reduced
α-SMA expression (immunohistochemical staining) in liver tissue [2, 3]: significantly reduced
amount of hydroxyproline ([2]; 40 mg/kg oral, FIG. 3b): statistically significantly reduced
expression of TGFβ protein in liver tissue [2, 4]: statistically significantly inhibited
expression of collagen I protein in liver tissue [2, 4]: statistically significantly inhibited
expression of α-SMA protein in liver tissue [2, 4]: statistically significantly inhibited
ALT ([2]; CCl4 + MBX 20 (20 mg/kg oral)): 38.55 U/L
AST ([2]; CCl4 + MBX 20 (20 mg/kg oral)): 94.06 U/L
D-BIL ([2]; CCl4 + MBX 20 (20 mg/kg oral)): 0.11 mg/dL
T-BIL ([2]; CCl4 + MBX 20 (20 mg/kg oral)): 0.20 mg/dL
ALT ([2]; CCl4 + MBX 40 (40 mg/kg oral)): 32.06 U/L
AST ([2]; CCl4 + MBX 40 (40 mg/kg oral)): 68.11 U/L
D-BIL ([2]; CCl4 + MBX 40 (40 mg/kg oral)): 0.12 mg/dL
T-BIL ([2]; CCl4 + MBX 40 (40 mg/kg oral)): 0.23 mg/dL
